# Experimental data taken from patent US12612375B2, “Antimicrobial and anticancer agents” (Persevere Therapeutics Inc., priority 2021, dated 2026).
# Columns and labels:
# Escherichia coli = experiment: Agar diffusion test Escherichia coli; format: cell-based; settings: for Inhibition Zone: Escherichia coli (ATCC 8739), gram-negative
# Description: (§1) Different gram-negative and gram-positive bacteria are used for testing the compounds of the present disclosure: Staphylococcus aureus and Escherichia coli (ATCC-LGC Standards GmbH, Wesel, Germany); Enterococcus faecilis, Enterococcus faecilum, Staphylococcus aureus, Clostridium difficile, Acineobacter baumannii, Pseudomonas aeruginosa, Stenotrophomonas maltophilia, Citrobacter freundii, Escherichia coli, Klebsiella pneomoniae, Morganelle morganii, Bactroides fragilis, Helicobacter pylori (fresh clinical isolates). All isolates are cultured with Müller-Hinton-Agar excluding Bacteroides fragilis and Helcobacter pylori. Bacteroides fragilis is cultured with Müller-Hinton-Agar containing 5% Horseblood and 20 mg/l ß-NAD. Helicobacter pylori is cultured with Chocolat PolyViteX-Agar.
# (§2) The antibacterial potential of compounds is examined by the Kirby-Bauer disc diffusion test using Müller-Hington agar. A 10 mm diameter disk soaked in 150 μl of distilled water containing 10 mg of the test substance was placed on Müller-Hington agar (bioMeieux, Geneve, Switzerland) holding a pre-lawn of the according test bacteria. The plates are incubated at 37° C. for 24 hours and the zone of inhibition is recorded. Culture media and sterilized distilled water were used as a control. N-acetylcysteine (NAC) is used as an anti-oxidant control.
# Enterococcus faecium = experiment: Agar diffusion test Enterococcus faecium; format: cell-based; settings: 10 mm disk with 10 mg test substance, 37° C., 24 hours
# Description: as §1, §2
# MDA MB 468 cells = experiment: Cell migration assay (scratch of confluent monolayer); format: cell-based, human; settings: 2 to 5 days, compared to untreated control, semi-quantified (FIG. 1)
# Procedure: Cells are plated into the 60-mm dishes to create a confluent monolayer and are incubated for 24 hours allowing cells to adhere and spread. The required number of cells for a confluent monolayer depends on the particular cell type. After creating a scratch of the cell monolayer, the gaparea is examined by phase-contrast-microscopy. Images are captured at the beginning and at regular intervals during cell migration (48, 72, and 120 hours (5 d)) closing the scratch, to semi-quantify the migration rate of the cells.
# Cell migration assay: cell migration of compounds 2289, 2244, 2287, 2255, 2256 compared to non-treated control (NK) and positive control (compound 2250). Comparative compounds 2244, 2287, 2255, 2256 have the following structures:
# Using cell migration assays, the migration rate of different cancer cell entities under treatment with 2289, negative control and positive control (2250) was semi-quantified.
# [1] = test system: MDA MB 468, HT29, MCC 14.2, Panc TuI; experiment: MTT assay for cell viability, all tested cancer cell lines (Example 2); format: cell-based, human; settings: FIG. 2
# Procedure: (§3) Cells are seeded individually to obtain a sub confluent monolayer in a 96 well plate format and are incubated for 24 hours prior treatment. To examine a dose response regarding the antineoplastic activity cells are incubated with increasing concentrations (100, 200, 500, 1000, 1500, 2000 μmol/l) of all different Oxathiazinane derivatives and ddH2O as control for 24 and 48 hours. After the exposition time 10 μl MTT (3-(4,5-Dimethylthiazol-2-yl)-2,5-diphenyltetrazoliumbromid) reagent (5 mg/ml) is added and incubated for 2 hours before violet Formazan crystals are dissolved in 100 μl DMSO (Dimethylsulfoxide). Viability of the cells can be analyzed by using a microplate absorbance reader by measuring the OD560 (ASYS, UVM340, Anthos Mikrosystheme GmbH, Germany). The assay is performed using 8 replicates in three independent experiments with consecutive passages.
# (§4) Anti-neoplastic activity of compounds 2289, 2293, and 2296 was determined according to the MTT assay and BrdU assay described above.
# [2] = test system: all tested cancer cell lines (MDA MB 468 highest, MCC 14.2 lowest response); experiment: BrdU assay for cell proliferation, all tested cancer cell lines (Example 2); format: cell-based, human; settings: FIG. 3
# Procedure: Cells are seeded individually to obtain a sub confluent monolayer in a 96 well plate format and are incubated for 24 hours prior to treatment. To examine the dose response regarding their anti-proliferative activity, cells are incubated with increasing concentrations (100, 200, 500, 1000, 1500 and 2000 μmol/l) of all different Oxathiazinane derivates and ddH2O as control for 6 h prior BrdU proliferation assay (5-bromo-2-deoxyuridine)-ELISA (Roche Applied Science, Mannheim, Germany) according to the manufacturer's instructions. […] The amount of synthesized DNA is detected using a microplate absorbance reader measuring at 370 nm with a reference wavelength of 492 nm (ASYS, UVM340, Anthos Mikrosysteme GmbH, Krefeld, Germany). BrdU assays are performed with 8 replicates of three independent experiments with consecutive passages.
# as §4
# [3] = test system: Staphylococcus aureus (MRSA); experiment: Agar diffusion test Staphylococcus aureus (MRSA); format: cell-based; settings: for Inhibition Zone: Staphylococcus aureus (MRSA Nr. 2065), gram-positive
# Description: as §1, §2
# Enterococcus faecalis = experiment: Agar diffusion test Enterococcus faecalis; format: cell-based; settings: 10 mm disk with 10 mg test substance, 37° C., 24 hours
# Description: as §1, §2
# [4] = previously reported; cited from earlier work
# [5] = test system: Staphylococcus aureus (ATCC 6538); experiment: Agar diffusion test Staphylococcus aureus (ATCC 6538); format: cell-based; settings: gram-positive
# Description: as §1, §2
# [6] = Human fresh blood stability / half-life at 37° C. in vitro; format: in vitro ADME; settings: for human blood stability profile compared to 2250: K2-EDTA human blood; for half-life compared to the half-life of taurolidine / half-life at 256 μM: human; for half-life at 256 μM: blood
# Procedure: The half-life of each of compounds 2289, 2293, and 2296 in human fresh blood was measured at 37° C. in vitro. For 2289 and 2293 into 2250, K2-EDTA human blood was spiked with 2289 or 2293 at 256 μM; 2250 at 26 μM and 2244 at 26 μM (n=1). The pool remained at 37° C. for 20-25 min and then an aliquot was centrifuged (2500 g for at least 5 minutes at 4° C.). After centrifugation the human plasma was collected and immediately frozen at −80° C. This aliquot corresponded to the T0. The remaining pool was aliquoted and kept at 37° C. An aliquot was collected, centrifuged (2500 g for at least 5 minutes at 4° C.) and the recovered plasma was frozen at −80° C. after at least 0.25, 0.5, 1, 6, 8, 24 and 48 hours. Stability was determined by measuring the 2289 and 2293 peak area at each time point compared to T0. For 2296 into its metabolite 1-hydoxypropane-2-sulfonamide, K2-EDTA human blood was spiked with 2296 at 256 μM and 1-hydroxypropane-2-sulfonamide at 26 μM (n=1). The pool remained at 37° C. for 20-25 min and then an aliquot was centrifuged (2500 g for at least 5 minutes at 4° C.). After centrifugation the human plasma was collected and immediately frozen at −80° C. This aliquot corresponded to the TO. The remaining pool was aliquoted and kept at 37° C. An aliquot was collected, centrifuged (2500 g for at least 5 minutes at 4° C.) and the recovered plasma frozen at −80° C. after at least 0.5, 1, 3, 6, 8 and 24 hours/ Stability was determined by measuring 2296 peak area at each time point compared to T0.
# Solubility in water = format: physicochemical; settings: at room temperature
# Procedure: Re-crystallization with, e.g., • Ethanol • Ethyl acetate • Ethyl acetate/light petroleum Physical Properties • Melting range: 79-83° C. • Solubility in water: about 1.5% at room temperature • Melting range: 52-53° C. • Solubility in water: <1.5% at room temperature • Melting range: 74-75° C. • Solubility in water: min. 1% at room temperature
# AsPc1 cells = experiment: MTT cytotoxicity assay AsPc1; format: cell-based; settings: AsPc1, after 24 h, compared to untreated control (NC), t-test
# Procedure: as §3
# A MTT Cytotoxicity assay of the cell line AsPc1 with different oxathiazine derivatives was performed.
# [7] = Human fresh blood stability / half-life at 37° C. in vitro; format: in vitro ADME; settings: 2296 into 1-hydroxypropane-2-sulfonamide, human blood 37° C., 256 μM, Time 48 h
# tumor stem cells = experiment: Killing tumor stem cells in tissue culture in vitro; format: cell-based
# Procedure: In some embodiments, the taurolidine, taurultam, or a mixture thereof is administered in a tumor stem cell killing composition at a concentration of about 0.01 to about 500 μg/ml. In some embodiments, the taurolidine, taurultam, or a mixture thereof is administered in a tumor stem cell killing composition at a concentration of about 0.1 to about 100 μg/ml. In some embodiments, the taurolidine, taurultam, or a mixture thereof is administered in a tumor stem cell killing effective composition at a concentration of about 10 to about 50 μg/ml. Taurolidine is effective at killing tumor stem cells in tissue culture in vitro at 0.01 μg/ml.
# [8] = Escherichia coli, 10 mm disk with 10 mg test substance, 37° C., 24 hours
# [9] = Staphylococcus aureus (MRSA), 10 mm disk with 10 mg test substance, 37° C., 24 hours
# [10] = 2289 or 2293 spiked at 256 μM into K2-EDTA human blood, 37° C., Time 0 h (T0, after 20-25 min at 37° C.)
smiles,measurement,setting,value
NS(=O)(=O)CCO [Compound 2244],zone of inhibition at 10000 µg/disc,Escherichia coli; [8],< 10 mm
same,zone of inhibition at 10000 µg/disc,Enterococcus faecium,< 10 mm
O=S1(=O)CCOCN1 [Compound 2250],migration rate,MDA MB 468 cells,clearly inhibited
same,"reduction of living cells (cell viability, MTT)",[1],significant reduction of living cells
same,reduction of proliferating cells (BrdU),[2],significant reduction of proliferating cells
same,Zone of inhibition,Escherichia coli; [8],24.5 mm
same,Zone of inhibition,[3]; [9],49.5 mm
same,Zone of inhibition,Enterococcus faecalis,42.5 mm)
same,half-life compared to taurolidine,[4],significantly longer half-life
CN1COCCS1(=O)=O [Compound 2255],zone of inhibition at 10000 µg/disc,Escherichia coli; [8],< 10 mm
same,zone of inhibition at 10000 µg/disc,[3]; [9],< 10 mm
CC1NS(=O)(=O)CCO1 (centres unmarked) [Compound 2256],zone of inhibition at 10000 µg/disc,Escherichia coli; [8],< 10 mm
same,zone of inhibition at 10000 µg/disc,[3]; [9],< 10 mm
CC1OCCS(=O)(=O)N1C (centres unmarked) [Compound 2287],zone of inhibition at 10000 µg/disc,Escherichia coli; [8],< 10 mm
same,zone of inhibition at 10000 µg/disc,[3]; [9],< 10 mm
CC(=O)N1COCCS1(=O)=O [Compound 2289],migration rate,MDA MB 468 cells,lower migration rate
same,"reduction of living cells (cell viability, MTT)",[1],significant reduction of living cells
same,reduction of proliferating cells (BrdU),[2],significant reduction of proliferating cells
same,Inhibition Zone,Escherichia coli,18.5 mm
same,zone of inhibition at 10000 µg/disc,Escherichia coli; [8],18.5 mm
same,zone of inhibition at 10000 µg/disc,[3]; [9],27.5 mm
same,Inhibition Zone,[5],27.5 mm
same,% Stability,[6]; [10],Not stable-
same,human blood stability profile compared to 2250,[6]; 37° C.,very similar profile
same,half-life compared to the half-life of taurolidine,[6],significantly higher
same,half-life at 256 μM,[6],5 to 6 h
same,Solubility in water,Solubility in water,about 1.5%
CCC(=O)N1COCCS1(=O)=O [Compound 2293],concentration from which a significant impact on cell viability is shown,AsPc1 cells,≥ 500 µM
same,Inhibition Zone,Escherichia coli,19.5 mm
same,Inhibition Zone,[3],32.5 mm
same,Inhibition Zone,[5],31.5 mm
same,% Stability,[6]; [10],Not stable-
same,human blood stability profile compared to 2250,[6]; 37° C.,very similar profile
same,half-life compared to the half-life of taurolidine,[6],significantly higher
same,half-life at 256 μM,[6],5 to 6 h
same,Solubility in water,Solubility in water,< 1.5%
CC1COCNS1(=O)=O (centres unmarked) [Compound 2296],Inhibition Zone,Escherichia coli,23.0 mm
same,Inhibition Zone,[3],43.0 mm
same,Inhibition Zone,[5],38.0 mm
same,% Stability,"[6]; 2296 into 1-hydroxypropane-2-sulfonamide, human blood 37° C., 256 μM, Time 0 h",100%
same,% Stability,"[6]; 2296 into 1-hydroxypropane-2-sulfonamide, human blood 37° C., 256 μM, Time 0.5 h",97%
same,% Stability,"[6]; 2296 into 1-hydroxypropane-2-sulfonamide, human blood 37° C., 256 μM, Time 1 h",92%
same,% Stability,"[6]; 2296 into 1-hydroxypropane-2-sulfonamide, human blood 37° C., 256 μM, Time 3 h",71%
same,% Stability,"[6]; 2296 into 1-hydroxypropane-2-sulfonamide, human blood 37° C., 256 μM, Time 6 h",52%
same,% Stability,"[6]; 2296 into 1-hydroxypropane-2-sulfonamide, human blood 37° C., 256 μM, Time 8 h",42%
same,% Stability,"[6]; 2296 into 1-hydroxypropane-2-sulfonamide, human blood 37° C., 256 μM, Time 24 h",7%
same,human blood stability profile compared to 2250,[6]; 37° C.,very similar profile
same,half-life compared to the half-life of taurolidine,[6],significantly higher
same,half-life at 256 μM,[6],5 to 6 h
same,Solubility in water,Solubility in water,≥ 1%
same,% Stability,[7],1%
O=S1(=O)CCN(CN2CCS(=O)(=O)NC2)CN1 [taurolidine],concentration effective at killing tumor stem cells,tumor stem cells,0.01 µg/mL
same,half-life,[4],about 30 minutes
